Like-named read-outs stand apart in the source and are kept apart here.
How the values were obtained:
[1] = biological target: T1, human Cot catalytic domain (30-397 amino acids) (Homo sapiens, UniProt P41279); test: High Throughput Cot Biochemical Assay (KinEASE TR-FRET); conditions: read-out: IC50 HTRF
T1 construct: Purified recombinant human Cot catalytic domain (30-397 amino acids) was purchased from Cama Biosciences; purchased Cama Biosciences (so in the source)
In short: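 TR-FRET readout: Eu-labeled phospho-specific antibody binds XL665-tagged STK3 peptide after phosphorylation by Cot (aa 30-397, 5 nM). Conditions: 400 μM ATP, 1 μM peptide, MOPS pH 7.0 buffer with MgOAc, DTT, BSA, NP-40, glycerol; 0.1% DMSO.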

[2] = tested on: TNFα production in LPS-stimulated human monocytes; test: Cot Monocyte TNFα Cell Based Assay; conditions: Homo sapiens, Monocyte, read-out: EC50 TNF
In short: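 TR-FRET read-out of total secreted TNFα, normalized as % control (unstimulated = 0%, LPS-stimulated = 100%). Cells (5,000/well) were exposed to compound 1 h at 37 °C, then to 50 pg/ml LPS for a further 4 h.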

[3] = Cot biochemical HTRF (KinEASE TR-FRET) assay
[4] = TNFα in LPS-stimulated human monocytes
[5] = Cot KinEASE TR-FRET (HTRF) biochemical assay, 400 μM ATP
[6] = Cot KinEASE TR-FRET, 400 μM ATP
[7] = LPS-stimulated human monocytes, TNFα TR-FRET

T1 sequence (P41279 30-397): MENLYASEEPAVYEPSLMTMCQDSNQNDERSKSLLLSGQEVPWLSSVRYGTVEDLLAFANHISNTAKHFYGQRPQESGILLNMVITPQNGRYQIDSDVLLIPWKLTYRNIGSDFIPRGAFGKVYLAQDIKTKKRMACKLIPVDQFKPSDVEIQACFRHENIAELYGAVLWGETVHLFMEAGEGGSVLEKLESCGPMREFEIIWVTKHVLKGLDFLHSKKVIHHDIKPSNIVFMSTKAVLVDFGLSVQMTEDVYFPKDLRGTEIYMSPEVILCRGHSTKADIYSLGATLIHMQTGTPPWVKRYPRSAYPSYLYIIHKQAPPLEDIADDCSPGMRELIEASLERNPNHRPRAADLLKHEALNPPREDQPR

Row | Structure (SMILES) | IC50 [1, 3] | EC50 [2, 4] | IC50 [1, 5] | IC50 [1, 6] | EC50 [2, 7]
1 | [2H][C@](Nc1cc(Cl)c2ncc(C#N)c(NCC(C)(C)COC)c2c1)(c1ccc(F)cc1)c1cn(C2CC2)nn1 [Example 225, (S)-8-chloro-6-(((1-cyclopropyl-1H-1,2,3-triazol-4-yl)(4-fluorophenyl)methyl-d)amino)-4-((3-methoxy-2,2-dimethylpropyl)amino) quinoline-3-carbonitrile] | – | 800 nM | 38 nM | – | –
2 | [2H][C@](Nc1cc(Cl)c2ncc(C#N)c(N[C@H](CC)c3ccccc3)c2c1)(c1ccccc1Cl)c1nn[nH]c1C [Example 298, 8-chloro-6-(((S)-(2-chlorophenyl)(5-methyl-1H-1,2,3-triazol-4-yl)methyl-d)amino)-4-(((R)-1-phenylpropyl)amino)quinoline-3-carbonitrile] | – | 1470 nM | 121 nM | – | –
3 | CC[C@@H](Nc1c(C#N)cnc2c(Cl)cc(N[C@@H](c3cccc(C(=O)N(C)C)c3)c3cn(C4CCN(C(C)(C)C)CC4)nn3)cc12)c1ccccc1 [Example 600, 3-((S)-(1-(1-(tert-butyl)piperidin-4-yl)-1H-1,2,3-triazol-4-yl)((8-chloro-3-cyano-4-(((R)-1-phenylpropyl)amino)quinolin-6-yl)amino)methyl)-N,N-dimethylbenzamide] | 2 nM | 78 nM | – | – | –
4 | Cc1c(-c2cnco2)cccc1[C@H](Nc1cc(Cl)c2ncc(C#N)c(NCC(C)(C)C)c2c1)c1cn(C2(C(F)F)CC2)nn1 [Example 1167, (S)-8-chloro-6-(((1-(1-(difluoromethyl)cyclopropyl)-1H-1,2,3-triazol-4-yl)(2-methyl-3-(oxazol-5-yl)phenyl)methyl)amino)-4-(neopentylamino)quinoline-3-carbonitrile] | – | – | – | 5 nM | 62 nM
5 | CC(C)(C)CNc1c(C#N)cnc2c(C#N)cc(N[C@H](c3cn(CC(N)=O)nn3)c3ccccc3Cl)cc12 [Example 963, (S)-2-(4-((2-chlorophenyl) ((3,8-dicyano-4-(neopentylamino)quinolin-6-yl)amino)methyl)-1H-1,2,3-triazol-1-yl)acetamide] | – | – | – | 3 nM | 777 nM
6 | Cc1c(-c2ncco2)cccc1[C@H](Nc1cc(Cl)c2ncc(C#N)c(NCC(C)(C)C)c2c1)c1cn(C2(C(F)F)CC2)nn1 [Example 1051, (S)-8-chloro-6-(((1-(1-(difluoromethyl)cyclopropyl)-1H-1,2,3-triazol-4-yl)(2-methyl-3-(oxazol-2-yl)phenyl)methyl)amino)-4-(neopentylamino)quinoline-3-carbonitrile] | – | – | – | 4 nM | 163 nM
7 | N#CCC[C@@H](Nc1c(C#N)cnc2c(Cl)cc(N[C@H](c3cn(C(F)(F)CO)nn3)c3ccccc3Cl)cc12)c1ccccc1 [Example 67, 8-chloro-6-(((S)-(2-chlorophenyl)(1-(1,1-difluoro-2-hydroxyethyl)-1H-1,2,3-triazol-4-yl)methyl)amino)-4-(((R)-3-cyano-1-phenylpropyl)amino) quinoline-3-carbonitrile] | – | 41 nM | 2 nM | – | –
8 | [2H][C@](Nc1cc(Cl)c2ncc(C#N)c(N[C@H](CCC#N)c3ccccc3)c2c1)(c1ccc(F)cc1)c1cn(C2(C(F)(F)F)CC2)nn1 [Example 938, 8-chloro-4-(((R)-3-cyano-1-phenylpropyl)amino)-6-(((S)-(4-fluorophenyl)(1-(1-(trifluoromethyl)cyclopropyl)-1H-1,2,3-triazol-4-yl)methyl-d)amino)quinoline-3-carbonitrile] | – | – | – | 6 nM | 71 nM
9 | Cc1c(-c2cnn(C)c2)cccc1[C@H](Nc1cc(Cl)c2ncc(C#N)c(NCC(C)(C)C)c2c1)c1cn(C2(C(F)F)CC2)nn1 [Example 1086, (S)-8-chloro-6-(((1-(1-(difluoromethyl)cyclopropyl)-1H-1,2,3-triazol-4-yl)(2-methyl-3-(1-methyl-1H-pyrazol-4-yl)phenyl)methyl)amino)-4-(neopentylamino)quinoline-3-carbonitrile] | – | – | – | 4 nM | 76 nM
10 | CC(C)(C)CNc1c(C#N)cnc2c(C#N)cc(N[C@H](c3cn(C4(C#N)CC4)nn3)c3ccccc3Cl)cc12 [Example 956, (S)-6-(((2-chlorophenyl)(1-(1-cyanocyclopropyl)-1H-1,2,3-triazol-4-yl)methyl)amino)-4-(neopentylamino)quinoline-3,8-dicarbonitrile] | – | – | – | 5 nM | 61 nM
11 | [2H]C(Nc1cc(Cl)c2ncc(C#N)c(N[C@H](CCN3CCOCC3)c3ccccc3)c2c1)(c1ccc(F)cc1)c1cn(C2CC2)nn1 (stereo partly shown) [Compound 34] | – | 192 nM | 13 nM | – | –
12 | CC[C@@H](Nc1c(C#N)cnc2c(Cl)cc(N[C@@H](c3cccc(N(C)C(C)=O)c3)c3c[nH]nn3)cc12)c1ccccc1 [Example 563, N-(3-((S)-((8-chloro-3-cyano-4-(((R)-1-phenylpropyl)amino)quinolin-6-yl)amino)(1H-1,2,3-triazol-4-yl)methyl)phenyl)-N-methylacetamide] | 2 nM | 280 nM | – | – | –
13 | CC(C)(C)CNc1c(C#N)cnc2c(C#N)cc(N[C@@H](c3ccc(F)cc3)c3cn(C4(C)CC4)nn3)cc12 [Example 978, (S)-6-(((4-fluorophenyl)(1-(1-methylcyclopropyl)-1H-1,2,3-triazol-4-yl)methyl)amino)-4-(neopentylamino)quinoline-3,8-dicarbonitrile] | – | – | – | 5 nM | 65 nM
14 | Cc1c(C#N)cccc1[C@H](Nc1cc(C#N)c2ncc(C#N)c(NCC(C)(C)C)c2c1)c1cn(C23CC(C2)C3)nn1 [Example 1156, (S)-6-(((1-(bicyclo[1.1.1]pentan-1-yl)-1H-1,2,3-triazol-4-yl)(3-cyano-2-methylphenyl)methyl)amino)-4-(neopentylamino)quinoline-3,8-dicarbonitrile] | – | – | – | 1 nM | 13 nM
15 | CC[C@@H](Nc1c(C#N)cnc2c(Cl)cc(N[C@H](c3c[nH]nn3)c3cccc(F)c3F)cc12)c1ccccc1 [Example 445, 8-chloro-6-(((S)-(2,3-difluorophenyl)(1H-1,2,3-triazol-4-yl)methyl)amino)-4-(((R)-1-phenylpropyl)amino) quinoline-3-carbonitrile] | 46 nM | 1270 nM | – | – | –

Now from value to compound:

Row | IC50 [1, 3] | EC50 [2, 4] | IC50 [1, 5] | IC50 [1, 6] | EC50 [2, 7] | Structure (SMILES)
16 | 1 nM | 147 nM | – | – | – | CC1CCN1C(=O)c1cccc([C@H](Nc2cc(Cl)c3ncc(C#N)c(Nc4ccc(F)c(Cl)c4)c3c2)c2cn(C3CCN(C(C)(C)C)CC3)nn2)c1 (stereo partly drawn) [Example 593, 6-(((1S)-(1-(1-(tert-butyl)piperidin-4-yl)-1H-1,2,3-triazol-4-yl)(3-(2-methylazetidine-1-carbonyl)phenyl)methyl)amino)-8-chloro-4-((3-chloro-4-fluorophenyl)amino)quinoline-3-carbonitrile]
17 | – | 426 nM | 11 nM | – | – | [2H][C@](Nc1cc(Cl)c2ncc(C#N)c(N[C@H](C)c3ccccc3)c2c1)(c1ccc(F)cc1)c1cn(C2CC2)nn1 [Example 227, 8-chloro-6-(((S)-(1-cyclopropyl-1H-1,2,3-triazol-4-yl)(4-fluorophenyl)methyl-d)amino)-4-(((R)-1-phenylethyl)amino) quinoline-3-carbonitrile]
18 | – | 532 nM | 15 nM | – | – | CC1(n2cc([C@@H](Nc3cc(Cl)c4ncc(C#N)c(Nc5cnc(F)c(F)c5)c4c3)c3ccc(F)cc3)nn2)COC1 [Example 403, (S)-8-chloro-4-((5,6-difluoropyridin-3-yl)amino)-6-(((4-fluorophenyl) (1-(3-methyloxetan-3-yl)-1H-1,2,3-triazol-4-yl)methyl)amino)quinoline-3-carbonitrile]
19 | 39 nM | 1090 nM | – | – | – | N#Cc1cnc2c(Cl)cc(N[C@@H](c3ccccc3)c3cn(CC(F)F)nn3)cc2c1Nc1ccc(F)c(Cl)c1 [Example 669, (S)-8-chloro-4-((3-chloro-4-fluorophenyl)amino)-6-(((1-(2,2-difluoroethyl)-1H-1,2,3-triazol-4-yl)(phenyl)methyl)amino) quinoline-3-carbonitrile]
20 | 1 nM | 324 nM | – | – | – | N#Cc1cnc2c(Cl)cc(N[C@@H](c3ccccc3)c3cn([C@@H]4CCNC[C@H]4O)nn3)cc2c1Nc1ccc(F)c(Cl)c1 [Example 515, 8-chloro-4-((3-chloro-4-fluorophenyl)amino)-6-(((S)-(1-((3R,4R)-3-hydroxypiperidin-4-yl)-1H-1,2,3-triazol-4-yl)(phenyl)methyl)amino) quinoline-3-carbonitrile]
21 | 11 nM | 466 nM | – | – | – | Cc1cc(F)ccc1C(Nc1cc(Cl)c2ncc(C#N)c(Nc3ccc(F)c(Cl)c3)c2c1)c1cn(C2CCNCC2)nn1 (stereo not shown) [Example 884, 8-chloro-4-((3-chloro-4-fluorophenyl)amino)-6-(((4-fluoro-2-methylphenyl) (1-(piperidin-4-yl)-1H-1,2,3-triazol-4-yl)methyl)amino)quinoline-3-carbonitrile]
22 | 621 nM | 1250 nM | – | – | – | N#Cc1cnc2c(Cl)cc(N[C@@H](c3ccc(Cl)cc3)c3c[nH]nn3)cc2c1Nc1ccc(Cl)c(Cl)c1 [Example 688, (S)-8-chloro-6-(((4-chlorophenyl)(1H-1,2,3-triazol-4-yl)methyl)amino)-4-((3,4-dichlorophenyl)amino)quinoline-3-carbonitrile]
23 | 39 nM | 673 nM | – | – | – | Cn1cc(C(Nc2cc(Cl)c3ncc(C#N)c(Nc4ccc(F)c(Cl)c4)c3c2)c2ccc(Cl)cc2)nn1 (stereo not shown) [Example 881, 8-chloro-4-((3-chloro-4-fluorophenyl)amino)-6-(((4-chlorophenyl)(1-methyl-1H-1,2,3-triazol-4-yl)methyl)amino)quinoline-3-carbonitrile]
